Earlier results in patent publication US8575172B2 (Zysis Limited, priority 2006, dated 2013).
Read-outs that look alike come from different tables or passages of the source.

Tests used:
[1] = biological target: T1, 5-HT1A receptor (Homo sapiens, UniProt P08908)
T1 sequence (P08908 1-422): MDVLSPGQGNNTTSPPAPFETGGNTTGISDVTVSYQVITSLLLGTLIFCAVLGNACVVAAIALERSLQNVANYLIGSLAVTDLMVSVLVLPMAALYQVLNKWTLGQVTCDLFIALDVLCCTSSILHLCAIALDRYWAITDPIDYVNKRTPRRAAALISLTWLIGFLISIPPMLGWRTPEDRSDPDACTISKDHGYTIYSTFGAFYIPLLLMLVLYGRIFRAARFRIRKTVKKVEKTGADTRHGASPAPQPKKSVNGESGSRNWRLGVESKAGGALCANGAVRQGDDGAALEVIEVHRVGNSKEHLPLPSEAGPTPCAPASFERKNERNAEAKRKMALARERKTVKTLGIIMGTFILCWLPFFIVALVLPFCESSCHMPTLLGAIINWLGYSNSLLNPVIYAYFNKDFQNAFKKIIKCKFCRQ

[2] = biological target: 5-HT2A receptor (Homo sapiens, UniProt P28223)
[3] = test system: histamine receptors
[4] = test system: alpha adrenergic receptors
[5] = test system: cholinergic muscarinic receptors
[6] = biological target: CYP2D6 (Homo sapiens, UniProt P10635)
[7] = single oral dose
[8] = CYP2D6 poor vs extensive metabolizers

Sequence of 5-HT2A receptor (P28223 whole entry): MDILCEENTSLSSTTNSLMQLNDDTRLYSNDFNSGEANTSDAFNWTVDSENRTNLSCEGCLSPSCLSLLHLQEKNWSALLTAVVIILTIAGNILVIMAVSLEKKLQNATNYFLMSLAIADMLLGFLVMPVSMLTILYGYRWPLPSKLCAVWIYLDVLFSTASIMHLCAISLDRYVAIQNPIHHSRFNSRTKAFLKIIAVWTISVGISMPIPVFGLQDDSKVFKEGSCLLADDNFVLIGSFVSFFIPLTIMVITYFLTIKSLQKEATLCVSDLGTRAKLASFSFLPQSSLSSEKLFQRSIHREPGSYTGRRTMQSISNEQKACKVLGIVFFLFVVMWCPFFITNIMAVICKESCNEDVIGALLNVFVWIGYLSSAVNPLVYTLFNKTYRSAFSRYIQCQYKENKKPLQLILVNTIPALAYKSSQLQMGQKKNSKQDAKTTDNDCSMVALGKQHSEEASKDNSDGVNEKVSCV
Sequence of CYP2D6 (P10635 whole entry): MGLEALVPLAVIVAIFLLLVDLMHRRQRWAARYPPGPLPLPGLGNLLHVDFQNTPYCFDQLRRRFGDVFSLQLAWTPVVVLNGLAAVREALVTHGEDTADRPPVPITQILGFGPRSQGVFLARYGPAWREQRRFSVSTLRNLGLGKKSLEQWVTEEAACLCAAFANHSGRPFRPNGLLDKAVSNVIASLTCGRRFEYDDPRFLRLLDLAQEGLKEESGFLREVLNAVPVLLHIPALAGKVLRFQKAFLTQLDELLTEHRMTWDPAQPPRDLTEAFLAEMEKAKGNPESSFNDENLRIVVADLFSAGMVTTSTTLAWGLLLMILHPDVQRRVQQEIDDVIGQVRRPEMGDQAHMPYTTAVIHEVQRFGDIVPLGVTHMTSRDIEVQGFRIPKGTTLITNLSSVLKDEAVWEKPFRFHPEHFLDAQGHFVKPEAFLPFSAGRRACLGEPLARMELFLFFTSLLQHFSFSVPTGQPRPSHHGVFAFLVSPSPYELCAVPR

Structure (SMILES): O=C1CCc2ccc(OCCCCN3CCN(c4cccc(Cl)c4Cl)CC3)cc2N1 [aripiprazole, 7-[4-[4-(2,3-dichlorophenyl)piperazin-1-yl]butoxy]-3,4-dihydro-1H-quinolin-2-one]
- mean elimination half-life (CYP2D6 extensive metabolizers (EMs)): about 75 hours
- mean elimination half-life (CYP2D6 poor metabolizers (PMs)): ~146 h
- increase in aripiprazole exposure in PMs compared to EMs [8]: ~80%
- absorption (administered orally as the solution): well absorbed
- absorption (after administration of the IR tablet): well absorbed
- higher exposure to the total active moieties in PMs compared to EMs (from a given dose of aripiprazole): ~60%
- mean elimination half-life (in vivo): about 75 hours
- pharmacokinetics at steady state (in vivo): dose-proportional
- activity at the 5-HT1A receptor [1]: partial agonist
- profile at the 5-HT2A receptor [2]: antagonist
- affinity for histamine receptors [3]: moderate affinity
- affinity for alpha adrenergic receptors [4]: moderate affinity
- affinity for cholinergic muscarinic receptors [5]: no appreciable affinity
- effect on the CYP2D6 pathway [6]: does not inhibit or induce
- oral dose recovered unchanged in the feces [7]: approximately 18%
- unchanged aripiprazole excreted in the urine [7]: Less than 1%
- administered radioactivity recovered in the feces ([7]; [14C]-labeled): ~55%
- administered radioactivity recovered in the urine ([7]; [14C]-labeled): approximately 25%

Structure (SMILES): O=c1ccc2ccc(OCCCCN3CCN(c4cccc(Cl)c4Cl)CC3)cc2[nH]1 [dehydro-aripiprazole]
- decrease in exposure to the active metabolite in PMs compared to EMs [8]: ~30%
- share of aripiprazole AUC in plasma (at steady state): about 40%
- mean elimination half-life (in vivo): ~94 h
- share of the parent drug exposure in plasma (in vivo): 40%
